According to patent publication US20260048046A1, “METHOD FOR IMPROVING GROWTH PERFORMANCE IN FEEDLOT CATTLE” (Elanco US Inc., priority 2022, published 2026):

System: beef cattle
Assay: 91-d study: growth performance of beef cattle fed lubabegron
Assay type: in vivo
Details: for ADG / DMI / G:F / Unshrunk final BW: 91-d treatment, LS mean
From the text: A randomized complete block design was used to evaluate the effect of lubabegron (LUB) on performance over a 91-d period using 336 beef cattle (BW=453±34.5 kg) housed in cattle pen enclosures (CPE). Four LUB treatments were included in the study based on dose: 0.0 (control or CON), 1.38, 5.5, and 22.0 (mg·kg^−1 of DM). Because there was a limited number of CPE (n=8), three sequential cycles (blocks) were required to generate 6 replicates of each dose×sex combination. As such, 112 cattle (56 steers and 56 heifers) were housed concurrently within each cycle across the eight CPE (14 cattle/CPE), with each dose×sex combination being represented by a single CPE/cycle. To assure different frame sizes of cattle were represented, cattle in cycles one and three were large-frame Continental crossbreds, whereas cattle in cycle 2 were medium-frame British crossbreds.
Treatment administration for the three cycles occurred from April through July, August through November, and December through March of 2014 and 2015, respectively. Four weeks before beginning treatments for each cycle (day −28), up to 145 cattle were sourced from a common origin and transported to the study site at the University of California-Davis to be group-housed in single-sexed outdoor pens. The presence of growth-promoting implants was assessed, and any preexisting implants were excised before shipment to the study site to ensure they had been implant-free for a minimum of 28 d before treatments began on day 0. No additional implants were used in these cattle, and they were considered nonimplanted.
On day −8, cattle were screened for abnormal health conditions by a veterinarian and ranked by BW to identify the 56 eligible cattle within each sex that provided the narrowest weight range. The following day (day −7), the 56 cattle selected for study enrollment. within each sex were grouped into sets of four consecutively weight-ranked cattle. Cattle were then randomly allocated to their respective treatment within each weight group and transferred into the CPE. The CPE were randomly assigned to sex and dose treatment before each cycle, and all study personnel were blinded to treatments throughout the duration of the study. All cattle were fed the negative control basal finishing diet (Table 1) for 1 week (days −7 to −1) after being placed into the CPE to allow for acclimation before beginning treatments.
Treatments began on day 0 and cattle in each CPE received their respective treatment for 91 d. Emission measurements began at 0800 hours on day 0 and ended at 0500 hours on day 91, immediately preceding cattle removal from the CPE for final BW measurements and transportation to the commercial slaughter facility.
Cattle had been fed a concentrate-based diet in a commercial setting before arrival at the study site on day −28, at which point they were provided ad libitum access to water and re-acclimated to a concentrate-based diet using a step-up program involving two intermediate diets based on increasing concentrate levels (˜60% and 70%, respectively) and varying proportions of alfalfa and wheat hay. On day −14, cattle were transitioned onto a finishing diet (Table 1) formulated to meet, or exceed, the minimum nutrient requirements for growing beef cattle (NRC, 2000) that was then fed for the remainder of the study. A nonmedicated supplement (i.e., type B feed with a ground corn carrier) was included as 2.5% of the diet DM during acclimation for all cattle from day −14 until the beginning of treatment administration. On day 0, one of four type B supplements were added to the basal diet to provide either 0.0 (CON), 1.38, 5.5, or 22.0 mg·kg^−1 (DM basis) LUB in a type C (i.e., final feed) medicated feed. All type C feeds containing the appropriate concentrations of LUB or CON were prepared at the study site by adding the same proportions of Type B supplement, water, and basal ration in a rotary mixer wagon (Roto-Mix Forage Express, Dodge City, KS). […]

With CC(C)(Cc1ccc(Oc2ncccc2C#N)cc1)NC[C@H](O)COc1ccccc1-c1cccs1 [LUB, 2-{4-[2-({(2S)-2-Hydroxy-3-[2-(2-thienyl)phenoxy]propyl}amino)-2-methylpropyl]phenoxy}nicotinonitrile] the “Effect of LUB treatment on final BW” value (91 d, all LUB doses vs CON, P=0.257) was “not altered”, the “Effect of LUB on DMI” value (91 d, all LUB doses vs CON, P=0.585) was “no effect” and the “ADG increase vs. CON” value (LUB 1.38 mg·kg^−1, 91 d) was 11.8%. For the same molecule, the “G:F increase compared with CON” value (LUB 1.38 mg·kg^−1, 91 d) was 8.3%, the ADG (LUB 1.38 mg·kg^−1 DM) was 1.42 kg and the DMI (LUB 1.38 mg·kg^−1 DM) was 9.2 kg. For the same molecule, the “G:F” value (LUB 1.38 mg·kg^−1 DM) was 0.156 kg:kg, the “Unshrunk final BW” value (LUB 1.38 mg·kg^−1 DM) was 583 kg and the “ADG increase vs. CON” value (LUB 5.5 mg·kg^−1, 91 d) was 9.4%. The “G:F increase compared with CON” value (LUB 5.5 mg·kg^−1, 91 d) was 9.7%, the ADG (LUB 5.5 mg·kg^−1 DM) was 1.35 kg and the DMI (LUB 5.5 mg·kg^−1 DM) was 8.8 kg. The “G:F” value (LUB 5.5 mg·kg^−1 DM) was 0.158 kg:kg, the “Unshrunk final BW” value (LUB 5.5 mg·kg^−1 DM) was 582 kg and the “ADG increase vs. CON” value (LUB 22.0 mg·kg^−1, 91 d) was 12.6%. The “G:F increase compared with CON” value (LUB 22.0 mg·kg^−1, 91 d) was 13.2%, the ADG (LUB 22.0 mg·kg^−1 DM) was 1.43 kg and the DMI (LUB 22.0 mg·kg^−1 DM) was 8.8 kg. The “G:F” value (LUB 22.0 mg·kg^−1 DM) was 0.163 kg:kg and the “Unshrunk final BW” value (LUB 22.0 mg·kg^−1 DM) was 582 kg.
